Test results from patent US20030065015A1 (priority 2001, published 2003).
Values joined by “and” are separate entries in the source; they are usually repeats but may differ in a detail not shown here. Identical values can stand only once.

Key:
[1] = pH=6
physchem = conditions: pH 6
[2] = format: physicochemical; conditions: pH 0

Compound | partition coefficient [1] | logD (physchem) | Ko/a [2]
C[n+]1ccccc1/C=N/O [2-PAM chloride, 2-[(hydroxyimino)methyl]-1-methylpyrdinium chloride] | 0.79 | -3.12 | –
CN(C)C(=O)Oc1ccc[n+](C)c1.[Br-] [Pyridostigmine Bromide, 3-dimethylaminocarbonyloxy-N-methylpyridinium bromide] | – | – | 1.9 × 10^−3 and 2.3 × 10^−2 and 2.0 × 10^−2
